# Experimental data reported in patent publication US8735609B2, “Bryostatin analogues, synthetic methods and uses” (The Board of Trustees of the Leland Stanford Junior …, priority 2007, dated 2014).
# Assays:
# PKCδ-C1B = target: T1, PKCδ-C1B (Mus musculus, UniProt P28867); assay: PKCδ-C1B assay; format: binding
# T1 construct: made in house
# Description: Phosphatidyl serine vesicles are prepared by the addition of phosphatidyl serine (10 mg/mL in chloroform, 0.4 mL) to a glass test tube followed by removal of the chloroform under a stream of nitrogen (5 min). […] The resulting solution is stored over ice. […] Stock solutions of compounds are diluted with absolute ethanol in glass in serial fashion. […] The tubes are incubated at 37° C. for 90 min. and then put on ice for 5 min. Each tube is then filtered separately through a pre-soaked filter disc. […] The filter is subsequently rinsed with cold 20 mM TRIS buffer (5 mL) dropwise. […] The filters are immediately counted in a scintillation counter (Beckman LS 6000SC). Counts per minute are averaged among three trials at each concentration.
# P388 cell line = assay: P388 murine lymphocytic leukemia cell assay; format: cell-based
# Description: Cells from a P388 cell line (CellGate, Inc., Sunnyvale, Calif.) are grown in RPMI 1640 cell medium containing fetal calf serum (10%), L-glutamine, penicillin, streptomycin and are split twice weekly. All compounds are first diluted with DMSO. Later serial dilutions are done with a phosphate buffer solution (HYQ DPBS modified phosphate buffered saline). All dilutions are done in glass vials and the final DMSO concentration is always below 0.5% by volume. Final two-fold dilutions are done in a 96 well plate using cell media so that each well contains 50 μL. All compounds are assayed in quadruplicate over 12 concentrations. Cell concentration is measured using a hemacytometer and the final cell concentration is adjusted to 1×10^4 cells/mL with cell medium. The resulting solution of cells (50 μL) is then added to each well and the plates are incubated for 5 days in a 37° C., 5% CO2, humidified incubator (Sanyo CO2 incubator). MTT solution (3-[4,5-dimethylthiazol-2-yl]-2,5-diphenyltetrazolium bromide, 10 μL) is then added to each well and the plates are re-incubated under identical conditions for 2 h. To each well is then added acidified isopropanol (150 μL of i-PrOH solution containing 0.05 N HCl) and mixed thoroughly. The plates are then scanned at 595 nm and the absorbances are read (Wallac Victor 1420 Multilabel Counter). The resulting data is then analyzed to determine an ED50 value using the Prism software package (GraphPad).
# K-562 = assay: NCI human cancer cell line growth inhibition: K-562 (Leukemia); format: cell-based; details: Homo sapiens, K562
# SR = assay: NCI human cancer cell line growth inhibition: SR (Leukemia); format: cell-based; details: Homo sapiens
# A549/ATCC = assay: NCI human cancer cell line growth inhibition: A549/ATCC (NSC Lung); format: cell-based; details: Homo sapiens
# EKVX = assay: NCI human cancer cell line growth inhibition: EKVX (NSC Lung); format: cell-based; details: Homo sapiens
# NCI-H460 = format: cell-based, human; details: Homo sapiens; NCI-H460, NSC Lung; read-out: Growth inhibition (GI50)
# HCC-2998 = assay: NCI human cancer cell line growth inhibition: HCC-2998 (Colon); format: cell-based; details: Homo sapiens
# HCT-15 = assay: NCI human cancer cell line growth inhibition: HCT-15 (Colon); format: cell-based; details: Homo sapiens
# HT29 = assay: NCI human cancer cell line growth inhibition: HT29 (Colon); format: cell-based; details: Homo sapiens, HT-29
# KM12 = assay: NCI human cancer cell line growth inhibition: KM12 (Colon); format: cell-based; details: Homo sapiens
# SNB-19 = assay: NCI human cancer cell line growth inhibition: SNB-19 (CNS); format: cell-based; details: Homo sapiens
# DU-145 = assay: NCI human cancer cell line growth inhibition: DU-145 (Prostate); format: cell-based; details: Homo sapiens
# MI4 = assay: NCI human cancer cell line growth inhibition: MI4 (Melanoma); format: cell-based; details: Homo sapiens
# SK-MEL-2 = assay: NCI human cancer cell line growth inhibition: SK-MEL-2 (Melanoma); format: cell-based; details: Homo sapiens
# SK-MEL-28 = assay: NCI human cancer cell line growth inhibition: SK-MEL-28 (Melanoma); format: cell-based; details: Homo sapiens
# SK-MEL-5 = assay: NCI human cancer cell line growth inhibition: SK-MEL-5 (Melanoma); format: cell-based; details: Homo sapiens
# UACC-257 = assay: NCI human cancer cell line growth inhibition: UACC-257 (Melanoma); format: cell-based; details: Homo sapiens
# UACC-62 = assay: NCI human cancer cell line growth inhibition: UACC-62 (Melanoma); format: cell-based; details: Homo sapiens
# IGROVI = assay: NCI human cancer cell line growth inhibition: IGROVI (Ovarian); format: cell-based; details: Homo sapiens
# OVCAR-3 = assay: NCI human cancer cell line growth inhibition: OVCAR-3 (Ovarian); format: cell-based; details: Homo sapiens
# OVCAR-4 = assay: NCI human cancer cell line growth inhibition: OVCAR-4 (Ovarian); format: cell-based; details: Homo sapiens
# OVCAR-5 = assay: NCI human cancer cell line growth inhibition: OVCAR-5 (Ovarian); format: cell-based; details: Homo sapiens
# OVCAR-8 = assay: NCI human cancer cell line growth inhibition: OVCAR-8 (Ovarian); format: cell-based; details: Homo sapiens
# SK-OV-3 = assay: NCI human cancer cell line growth inhibition: SK-OV-3 (Ovarian); format: cell-based; details: Homo sapiens
# 786-0 = assay: NCI human cancer cell line growth inhibition: 786-0 (Renal); format: cell-based; details: Homo sapiens
# A498 = assay: NCI human cancer cell line growth inhibition: A498 (Renal); format: cell-based; details: Homo sapiens
# ACHN = assay: NCI human cancer cell line growth inhibition: ACHN (Renal); format: cell-based; details: Homo sapiens
# CAKI-1 = assay: NCI human cancer cell line growth inhibition: CAKI-1 (Renal); format: cell-based; details: Homo sapiens
# SN12C = assay: NCI human cancer cell line growth inhibition: SN12C (Renal); format: cell-based; details: Homo sapiens
# TK-10 = assay: NCI human cancer cell line growth inhibition: TK-10 (Renal); format: cell-based; details: Homo sapiens
# UO-31 = assay: NCI human cancer cell line growth inhibition: UO-31 (Renal); format: cell-based; details: Homo sapiens
# MCF7 = assay: NCI human cancer cell line growth inhibition: MCF7 (Breast); format: cell-based; details: Homo sapiens
# NCI/ADR-RES = format: cell-based, human; details: Homo sapiens, Breast, read-out: Growth inhibition (GI50) (converted)
# MDA-MB-231/ATCC = assay: NCI human cancer cell line growth inhibition: MDA-MB-231/ATCC (Breast); format: cell-based; details: Homo sapiens
# MDA-MB-435 = assay: NCI human cancer cell line growth inhibition: MDA-MB-435 (Breast); format: cell-based; details: Homo sapiens
# BT-549 = assay: NCI human cancer cell line growth inhibition: BT-549 (Breast); format: cell-based; details: Homo sapiens
# T-47D = assay: NCI human cancer cell line growth inhibition: T-47D (Breast); format: cell-based; details: Homo sapiens, T47D
# HS 578T = assay: NCI human cancer cell line growth inhibition: HS 578T (Breast); format: cell-based; details: Homo sapiens
# T1 sequence (P28867 231-281 limits assumed): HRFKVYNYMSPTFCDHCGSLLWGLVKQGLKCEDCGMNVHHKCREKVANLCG
compound,measurement,setting,value
CCCCCCCC(=O)O[C@H]1/C(=C/C(=O)OC)C[C@H]2C[C@H](CO)OC(=O)C[C@H](O)C[C@@H]3CCC[C@H](C[C@@H]4CCO[C@H](/C=C/C(C)(C)[C@]1(O)O2)O4)O3 [Formula IIa (702.1)],Ki,PKCδ-C1B,0.0003 ± 7e-05 µM
same,activity in PKCδ-C1B assay compared with the corresponding C26 methyl-containing analogue,PKCδ-C1B; vs Formula 1998a where R^3 is OH,significantly higher activity
same,activity in P388 assay compared with the corresponding C26 methyl-containing analogue,P388 cell line,significantly higher activity
same,EC50,"P388 cell line; Mus musculus, P388, 120 h, read-out: P388 Assay ED50",0.017 µM
same,GI50,K-562,0.0316 µM
same,GI50,SR,7.94 µM
same,GI50,A549/ATCC,0.24 µM
same,GI50,EKVX,2.63 µM
same,GI50,NCI-H460,< 0.01 µM
same,GI50,HCC-2998,0.0288 µM
same,GI50,HCT-15,17.4 µM
same,GI50,HT29,2.82 µM
same,GI50,KM12,4.57 µM
same,GI50,SNB-19,6.31 µM
same,GI50,DU-145,9.55 µM
same,GI50,MI4,5.5 µM
same,GI50,SK-MEL-2,9.55 µM
same,GI50,SK-MEL-28,21.4 µM
same,GI50,SK-MEL-5,0.372 µM
same,GI50,UACC-257,7.41 µM
same,GI50,UACC-62,7.76 µM
same,GI50,IGROVI,13.2 µM
same,GI50,OVCAR-3,14.8 µM
same,GI50,OVCAR-4,7.08 µM
same,GI50,OVCAR-5,5.25 µM
same,GI50,OVCAR-8,17 µM
same,GI50,SK-OV-3,50.1 µM
same,GI50,786-0,3.47 µM
same,GI50,A498,0.417 µM
same,GI50,ACHN,1.15 µM
same,GI50,CAKI-1,2 µM
same,GI50,SN12C,2.57 µM
same,GI50,TK-10,0.0933 µM
same,GI50,UO-31,14.1 µM
same,GI50,MCF7,3.98 µM
same,GI50,NCI/ADR-RES,18.2 µM
same,GI50,MDA-MB-231/ATCC,2.04 µM
same,GI50,MDA-MB-435,0.0219 µM
same,GI50,BT-549,19.5 µM
same,GI50,T-47D,9.55 µM
same,GI50,HS 578T,6.61 µM
